Assay results: patent EP4455292A1, “A METHOD FOR DETECTING ECTOINE” (Kaunas University of Technology, priority 2023, dated 2024)

How the values were obtained:
[1] = tested on: ectoine-inducible system EutR/PeutB; experiment: E. coli-based ectoine biosensor (plasmid pEct-1), RFP reporter fluorescence response; format: cell-based
Protocol: (§1) The fluorescence and cell absorbance were measured at multiple time points. Freshly grown bacterial cells were used to inoculate 2 mL of MM containing appropriate antibiotics in 50-mL centrifuge tubes, and cell cultures were grown overnight at 200 rpm and 30 °C. To obtain logarithmically growing cells, E. coli and P. putida overnight cultures were diluted to 0.05 OD600, respectively, in 5 mL of fresh medium with antibiotic. After the cells were grown to an OD600 of 0.15-0.2, culture aliquots of 142.5 µL were transferred into flat and clear bottom black 96-well plate (Corning Incorporated) and 7.5 µL of ectoine or hydroxyectoine was added to each culture to the required final concentration. Absorbance and fluorescence of cultures were measured using an Infinite Nano+ microplate reader (Tecan). Multiple time point measurements were taken every 10 min over the course of 15-20 hours with a plate reader measuring RFP fluorescence at excitation and emission wavelengths set to 585 nm and 620 nm, respectively, and absorbance at 600 nm. Obtained fluorescence and absorbance values were corrected by subtracting the autofluorescence and absorbance of the culture medium. The absolute normalized fluorescence was determined dividing the fluorescence value by corresponding absorbance value.
The dose-response of biosensors was determined by using single time-point values of fluorescence and absorbance, which were obtained from the multiple time-point measurements 4 h after supplementation of ectoine or hydroxyectoine at different concentrations ranging from 0 to 5 mM. For all assays, the cultures of E. coli and P. putida were prepared as described above, and 142.5 µL of logarithmically growing cells, supplemented with 7.5 µL of ectoine or hydroxyectoine, were cultured in 96-well plate. The fluorescence and absorbance were measured using the same conditions and plate reader as indicated above.
The plasmid pEct-1 was used to characterize biosensor's response to exogenously added ectoine. Experiments were performed to determine the kinetics of induction establishing the time that is required for the system to respond to a change in the ectoine and the dose response of the system. To evaluate biosensor's response to the ectoine, the fluorescence output was quantified.
First, the time course experiments were performed in E. coli and P. putida. Accordingly, cells of both microorganisms harbouring the plasmid pEct-1, were cultivated in minimal medium (MM) at 200 rpm and 30° C (E. coli: Cm 50 mg/L; P. putida: Tet 12.5 mg/L), in the presence and absence of 1 mM ectoine; their optical density (OD600) and RFP fluorescence were monitored over time (Figure 3). In both microorganisms, the RFP expression above the level of the uninduced culture started with 60-90 minutes delay after addition of ectoine (Figure 3 and Figure 4) supporting the notion that the ectoine's catabolic product, the alpha-ADABA, as identified previously [Schultz et al (2017) Environ. Microbiol. 19(11), 4599-4619; Hermann et al (2021) Front. Microbiol. 12, 764731] is the effector that activates gene expression in P. putida. The fluorescence continued to increase throughout the course of 20-hour time course experiment. Importantly, the uninduced baseline (no ectoine) remained at 0 fluorescence units. […] Such "non-leaky" system helps improving the quantification accuracy of reporter fluorescence, but also can be used to control the gene expression that can be harmful or even toxic to a cell. […]

[2] = tested on: ectoine-inducible system EutR/PeutB; experiment: P. putida-based ectoine biosensor (plasmid pEct-1), RFP reporter fluorescence response; format: cell-based
Protocol: as §1
The dose-response of biosensors was determined by using single time-point values of fluorescence and absorbance, […] ranging from 0 to 5 mM. […] The fluorescence and absorbance were measured using the same conditions and plate reader as indicated above.
The plasmid pEct-1 was used to characterize biosensor's response to exogenously added ectoine. […] To evaluate biosensor's response to the ectoine, the fluorescence output was quantified.
First, the time course experiments were performed in E. coli and P. putida. […] The fluorescence continued to increase throughout the course of 20-hour time course experiment. Importantly, the uninduced baseline (no ectoine) remained at 0 fluorescence units. […]

AraC-PBAD = settings: prior-art AraC-PBAD sensor, E. coli; cited from earlier work
[3] = E. coli, MM, 10 hours after supplementation, text does not separate the two hosts
[4] = MM, 10 hours after supplementation, text does not separate the two hosts

## CC1=NC(C(=O)O)CCN1 (stereo not drawn) [ectoine, 1,4,5,6-tetrahydro-2-methyl-4-pyrimidinecarboxylic acid]
[1]; 1 mM ectoine, MM, 30° C, E. coli
  delay of RFP expression above the level of the uninduced culture after addition of ectoine: 60 to 90 min
[1]; E. coli expression organism
  fold lower minimal ectoine concentration needed for observable induction (applicant's sensor vs AraC-PBAD sensor): around 1000 fold
[1]; [3]
  limit of detection: below 1 µM
  range of linear fluorescence response to exogenously present ectoine: 1 to 20 µM
[1]; Escherichia coli, applicant's sensor, E. coli expression organism, read-out: minimal ectoine concentration needed for observable induction
  minimal effective concentration: 1 µM
[2]; 1 mM ectoine, 30° C
  delay of RFP expression above the level of the uninduced culture after addition of ectoine: 60 to 90 min
[2]; [4]
  limit of detection: below 1 µM
  range of linear fluorescence response to exogenously present ectoine: 1 to 20 µM
AraC-PBAD
  minimal ectoine concentration needed for observable induction: around 10 mM
